From ChEMBL document CHEMBL4613312, “Predictive Gene Signature for Pyrazolopyrimidine Derivative c-Src Inhibitor 10a Sensitivity in Melanoma Cells” (ACS Med Chem Lett, 2020)
Activity calls are given as the source filed them. The rule behind the calls is not given here.

Columns and labels:
Homo sapiens [1] = organism: Homo sapiens; assay: Cytotoxicity against human M221 cells assessed as reduction in cell viability at 50 to 800 nM measured after 72 hrs by Celltiter-Glo luminescent assay; type: functional, cell-based
Homo sapiens [2] = organism: Homo sapiens; assay: Cytotoxicity against human M193 cells assessed as reduction in cell viability at 0.8 to 6 mM measured after 72 hrs by Celltiter-Glo luminescent assay; type: functional, cell-based
Homo sapiens [3] = organism: Homo sapiens; assay: Upregulation of PLOD2 mRNA level in human M221 cells by SYBR-green dye based qRT-PCR analysis; type: functional, cell-based
Homo sapiens [4] = organism: Homo sapiens; assay: Upregulation of PLOD2 mRNA level in human M2025 cells by SYBR-green dye based qRT-PCR analysis; type: functional, cell-based
Homo sapiens [5] = organism: Homo sapiens; assay: Downregulation of XRCC5 mRNA level in human M2025 cells by SYBR-green dye based qRT-PCR analysis; type: functional, cell-based
[6] = Synergistic cytotoxicity against human M193 cells assessed as combination index at 20 uM measured after 72 hrs in presence of 6 mM sodium valproate by Celltiter-Glo luminescent assay based Chou-Talalay method; type: functional
[7] = Cytotoxicity against human M193 cells assessed as reduction in cell viability measured after 72 hrs by Celltiter-Glo luminescent assay; type: functional, cell-based
Homo sapiens [8] = organism: Homo sapiens; assay: Upregulation of TMED7 mRNA level in human M193 cells by SYBR-green dye based qRT-PCR analysis; type: functional, cell-based
[9] = Cytotoxicity against human M7 cells assessed as reduction in cell viability measured after 72 hrs by Celltiter-Glo luminescent assay; type: functional, cell-based
[10] = Chemosensitization activity in human M221 cells assessed as reduction in cell viability at 20 uM measured after 72 hrs in presence of 0.8 mM sodium valproate by Celltiter-Glo luminescent assay relative to control; type: functional
[11] = Cytotoxicity against human M1 cells assessed as reduction in cell viability measured after 72 hrs by Celltiter-Glo luminescent assay; type: functional, cell-based
[12] = Synergistic cytotoxicity against human M221 cells assessed as combination index at 20 uM measured after 72 hrs in presence of 0.05 mM sodium valproate by Celltiter-Glo luminescent assay based Chou-Talalay method; type: functional
[13] = Chemosensitization activity in human M221 cells assessed as reduction in cell viability at 20 uM measured after 72 hrs in presence of 200 nM sodium valproate by Celltiter-Glo luminescent assay relative to control; type: functional
Homo sapiens [14] = organism: Homo sapiens; assay: Upregulation of TMED7 mRNA level in human M221 cells by SYBR-green dye based qRT-PCR analysis; type: functional, cell-based
[15] = Chemosensitization activity in human M193 cells assessed as reduction in cell viability at 20 uM measured after 72 hrs in presence of 4 mM sodium valproate by Celltiter-Glo luminescent assay relative to control; type: functional
M34 [16] = assay: Cytotoxicity against human M34 cells assessed as reduction in cell viability measured after 72 hrs by Celltiter-Glo luminescent assay; type: functional, cell-based; conditions: M34, 72 h
Homo sapiens [17] = organism: Homo sapiens; assay: Downregulation of NSUN5 mRNA level in human M2025 cells by SYBR-green dye based qRT-PCR analysis; type: functional, cell-based
Homo sapiens [18] = organism: Homo sapiens; assay: Downregulation of NSUN5 mRNA level in human M193 cells by SYBR-green dye based qRT-PCR analysis; type: functional, cell-based
[19] = Chemosensitization activity in human M193 cells assessed as reduction in cell viability at 20 uM measured after 72 hrs in presence of 0.8 mM sodium valproate by Celltiter-Glo luminescent assay relative to control; type: functional
[20] = Cytotoxicity against human SHM20A2 cells assessed as reduction in cell viability measured after 72 hrs by Celltiter-Glo luminescent assay; type: functional, cell-based
[21] = Cytotoxicity against human M433 cells assessed as reduction in cell viability measured after 72 hrs by Celltiter-Glo luminescent assay; type: functional, cell-based
[22] = Cytotoxicity against human M187 cells assessed as reduction in cell viability measured after 72 hrs by Celltiter-Glo luminescent assay; type: functional, cell-based
[23] = Cytotoxicity against human M221 cells assessed as reduction in cell viability measured after 72 hrs by Celltiter-Glo luminescent assay; type: functional, cell-based
Homo sapiens [24] = organism: Homo sapiens; assay: Downregulation of NSUN5 mRNA level in human M433 cells by SYBR-green dye based qRT-PCR analysis; type: functional, cell-based
[25] = Cytotoxicity against human M77 cells assessed as reduction in cell viability measured after 72 hrs by Celltiter-Glo luminescent assay; type: functional, cell-based
[26] = Synergistic cytotoxicity against human M193 cells assessed as combination index at 20 uM measured after 72 hrs in presence of 4 mM sodium valproate by Celltiter-Glo luminescent assay based Chou-Talalay method; type: functional
[27] = Cytotoxicity against human M221 cells assessed as reduction in cell viability at 20 uM measured after 72 hrs by Celltiter-Glo luminescent assay relative to control; type: functional
M34 [28] = assay: Downregulation of NSUN5 mRNA level in human M34 cells by SYBR-green dye based qRT-PCR analysis; type: functional, cell-based
[29] = Cytotoxicity against human M193 cells assessed as reduction in cell viability at 20 uM measured after 72 hrs by Celltiter-Glo luminescent assay relative to control; type: functional
[30] = Chemosensitization activity in human M193 cells assessed as reduction in cell viability at 20 uM measured after 72 hrs in presence of 6 mM sodium valproate by Celltiter-Glo luminescent assay relative to control; type: functional
M34 [31] = assay: Upregulation of PLOD2 mRNA level in human M34 cells by SYBR-green dye based qRT-PCR analysis; type: functional, cell-based
[32] = Cytotoxicity against human M133 cells assessed as reduction in cell viability measured after 72 hrs by Celltiter-Glo luminescent assay; type: functional, cell-based
Homo sapiens [33] = organism: Homo sapiens; assay: Upregulation of PLOD2 mRNA level in human M193 cells by SYBR-green dye based qRT-PCR analysis; type: functional, cell-based
Homo sapiens [34] = organism: Homo sapiens; assay: Downregulation of XRCC5 mRNA level in human M221 cells by SYBR-green dye based qRT-PCR analysis; type: functional, cell-based
Homo sapiens [35] = organism: Homo sapiens; assay: Downregulation of XRCC5 mRNA level in human M433 cells by SYBR-green dye based qRT-PCR analysis; type: functional, cell-based
[36] = Cytotoxicity against human M2025 cells assessed as reduction in cell viability measured after 72 hrs by Celltiter-Glo luminescent assay; type: functional, cell-based
[37] = Synergistic cytotoxicity against human M193 cells assessed as combination index at 20 uM measured after 72 hrs in presence of 0.8 mM sodium valproate by Celltiter-Glo luminescent assay based Chou-Talalay method; type: functional
[38] = Cytotoxicity against human M307 cells assessed as reduction in cell viability measured after 72 hrs by Celltiter-Glo luminescent assay; type: functional, cell-based
Homo sapiens [39] = organism: Homo sapiens; assay: Downregulation of NSUN5 mRNA level in human M221 cells by SYBR-green dye based qRT-PCR analysis; type: functional, cell-based
Homo sapiens [40] = organism: Homo sapiens; assay: Upregulation of TMED7 mRNA level in human M433 cells by SYBR-green dye based qRT-PCR analysis; type: functional, cell-based
[41] = Cytotoxicity against human M144 cells assessed as reduction in cell viability measured after 72 hrs by Celltiter-Glo luminescent assay; type: functional, cell-based
Homo sapiens [42] = organism: Homo sapiens; assay: Upregulation of TMED7 mRNA level in human M2025 cells by SYBR-green dye based qRT-PCR analysis; type: functional, cell-based
[43] = Synergistic cytotoxicity against human M221 cells assessed as combination index at 20 uM measured after 72 hrs in presence of 0.2 mM sodium valproate by Celltiter-Glo luminescent assay based Chou-Talalay method; type: functional
[44] = Synergistic cytotoxicity against human M221 cells assessed as combination index at 20 uM measured after 72 hrs in presence of 0.8 mM sodium valproate by Celltiter-Glo luminescent assay based Chou-Talalay method; type: functional
[45] = Cytotoxicity against human M189 cells assessed as reduction in cell viability measured after 72 hrs by Celltiter-Glo luminescent assay; type: functional, cell-based
M34 [46] = assay: Downregulation of XRCC5 mRNA level in human M34 cells by SYBR-green dye based qRT-PCR analysis; type: functional, cell-based
Homo sapiens [47] = organism: Homo sapiens; assay: Upregulation of PLOD2 mRNA level in human M433 cells by SYBR-green dye based qRT-PCR analysis; type: functional, cell-based
M34 [48] = assay: Upregulation of TMED7 mRNA level in human M34 cells by SYBR-green dye based qRT-PCR analysis; type: functional, cell-based
[49] = Cytotoxicity against human M24 cells assessed as reduction in cell viability measured after 72 hrs by Celltiter-Glo luminescent assay; type: functional, cell-based; conditions: M24, 72 h
[50] = Chemosensitization activity in human M221 cells assessed as reduction in cell viability at 20 uM measured after 72 hrs in presence of 50 nM sodium valproate by Celltiter-Glo luminescent assay relative to control; type: functional
Homo sapiens [51] = organism: Homo sapiens; assay: Downregulation of XRCC5 mRNA level in human M193 cells by SYBR-green dye based qRT-PCR analysis; type: functional, cell-based

Compound: CCCC(CCC)C(=O)O
- Activity (Homo sapiens [1]): inactive
- Activity (Homo sapiens [2]): inactive

Compound: CSc1nc(Nc2cccc(Cl)c2)c2cnn(CCc3ccccc3)c2n1
- Activity (Homo sapiens [3]): Active
- Activity (Homo sapiens [4]): Active
- Activity (Homo sapiens [5]): Active
- CI [6]: 0.696
- IC50 [7]: 0.09 to 9.01 µM
- Activity (Homo sapiens [8]): Active
- IC50 [9]: 0.09 to 9.01 µM
- Activity [10]: 92%
- IC50 [11]: 0.09 to 9.01 µM
- CI [12]: 0.766
- Activity [13]: 84%
- Activity (Homo sapiens [14]): Active
- Activity [15]: 84%
- IC50 (M34 [16]): 0.09 to 9.01 µM
- Activity (Homo sapiens [17]): Active
- Activity (Homo sapiens [18]): Active
- Activity [19]: 75%
- IC50 [20]: 0.09 to 9.01 µM
- IC50 [21]: 0.09 to 9.01 µM
- IC50 [22]: 0.09 to 9.01 µM
- IC50 [23]: 0.09 to 9.01 µM
- Activity (Homo sapiens [24]): Active
- IC50 [25]: 0.09 to 9.01 µM
- CI [26]: 0.76
- Activity [27]: 55%
- Activity (M34 [28]): Active
- Activity [29]: 47%
- Activity [30]: 89%
- Activity (M34 [31]): Active
- IC50 [32]: 0.09 to 9.01 µM
- Activity (Homo sapiens [33]): Active
- Activity (Homo sapiens [34]): Active
- Activity (Homo sapiens [35]): Active
- IC50 [36]: 0.09 to 9.01 µM
- CI [37]: 0.835
- IC50 [38]: 0.09 to 9.01 µM
- Activity (Homo sapiens [39]): Active
- Activity (Homo sapiens [40]): Active
- IC50 [41]: 0.09 to 9.01 µM
- Activity (Homo sapiens [42]): Active
- CI [43]: 0.681
- CI [44]: 0.603
- IC50 [45]: 0.09 to 9.01 µM
- Activity (M34 [46]): Active
- Activity (Homo sapiens [47]): Active
- Activity (M34 [48]): Active
- IC50 [49]: 0.09 to 9.01 µM
- Activity [50]: 75%
- Activity (Homo sapiens [51]): Active
